Results published in US8622991B2, “Method and device for drug delivery” (Insuline Medical Ltd., priority 2007, dated 2014).

Legend:
[1] = temperature to which the insulin can be exposed (insulin infused tissue region); cited from earlier work
[2] = euglycemic glucose clamp study (Glucose Infusion Rate) after insulin pump bolus, with and without heating device; type: in vivo, human; details: FIG. 26a; for time to peak action (GIR): insulin bolus 0.15 U/kg by pump
Source text: The infusion set includes a tube 44 and a catheter 47, which is inserted into the subcutaneous tissue. […] The controller unit has a switch/button 48 for manual operation and two indicators 49 for “treatment is on” and for battery status. The two components are connected by wires 43.
The controller monitors the electromagnetic emission from the pump. During a bolus mode, the pump emits a well defined series of electromagnetic pulses at constant rate, shown as arrows 42. […] The temperature of the heater is controlled by the controller using a temperature sensor 45 located on the heating element.
The flat heating element used in this example has several layers. The upper layer is a polyethylene layer which seals the element. Below that layer, there is an etched circuit, below which there is a copper layer for heat distribution and mechanical support. Below that layer, there is another sealing polyethylene layer, below which there is an adhesive tape from 3M® which is bio-compatible. The heater has a thickness of less than 0.2 mm and his diameter is 3 cm. Thin electric wires of length of 60 cm with small connectors at both ends connected the heater to the controller unit. The power used for the heating can be 2 Watts. The heating was turned on and off by the controller to stabilize the skin temperature at 39° C. The heat duration was set to 30 minutes, after which the temperature regulation was stopped.
The subject lied down in supine position.
The above described procedure was performed in the same subjects under the same conditions with and without using the heating device. The two graphs show the GIR in glucose milligrams per minutes per subject's kg vs. time. […] There are many attempts to compose such an “artificial pancreas” since the development of continuous glucose monitors. […] Thus, another use of the methods and devices by the present invention is to combine them with a glucose sensor, insulin delivery device and a control algorithm to provide a better accuracy and robustness of a closed loop glucose level control system.

| Substance | maximal limiting temperature [1] | time to peak action (GIR) ([2]; with heating (skin 39° C., 30 minutes), same subject) | GIR decrease (indication for insulin clearance out of the circulation and cessation of systemic effects) ([2]; with heating compared to without heating, same subject) | time to peak action (GIR) ([2]; without heating, typical result in one diabetic subject) |
| --- | --- | --- | --- | --- |
| Insulin aspart [Novolog] | 37 °C |  |  |  |
| insulin |  | 50 min | much faster | 75 min |
